{"source": "PubChem BioAssay (NCI)", "test_in_all_cases": "inhibition of tumour cell growth, NCI panel, 48 h", "key": {"786-0 renal": {"tested_on": "786-0 renal"}, "A498 renal": {"tested_on": "A498 renal"}, "A549 NSCLC": {"tested_on": "A549 NSCLC"}, "ACHN renal": {"tested_on": "ACHN renal"}, "CAKI-1 renal": {"tested_on": "CAKI-1 renal"}, "CCRF-CEM leukemia": {"tested_on": "CCRF-CEM leukemia"}, "COLO 205 colon": {"tested_on": "COLO 205 colon"}, "DLD-1 colon": {"tested_on": "DLD-1 colon"}, "DMS 114 small cell lung": {"tested_on": "DMS 114 small cell lung"}, "DMS 273 small cell lung": {"tested_on": "DMS 273 small cell lung"}, "EKVX NSCLC": {"tested_on": "EKVX NSCLC"}, "HCC-2998 colon": {"tested_on": "HCC-2998 colon"}, "HCT-116 colon": {"tested_on": "HCT-116 colon"}, "HCT-15 colon": {"tested_on": "HCT-15 colon"}, "HL-60(TB) leukemia": {"tested_on": "HL-60(TB) leukemia"}, "HOP-62 NSCLC": {"tested_on": "HOP-62 NSCLC"}, "HT29 colon": {"tested_on": "HT29 colon"}, "IGROV1 ovarian": {"tested_on": "IGROV1 ovarian"}, "K-562 leukemia": {"tested_on": "K-562 leukemia"}, "KM12 colon": {"tested_on": "KM12 colon"}, "KM20L2 colon": {"tested_on": "KM20L2 colon"}, "LOX IMVI melanoma": {"tested_on": "LOX IMVI melanoma"}, "LXFL 529 NSCLC": {"tested_on": "LXFL 529 NSCLC"}, "M14 melanoma": {"tested_on": "M14 melanoma"}, "MOLT-4 leukemia": {"tested_on": "MOLT-4 leukemia"}, "NCI-H226 lung": {"tested_on": "NCI-H226 lung"}, "NCI-H460 lung": {"tested_on": "NCI-H460 lung"}, "NCI-H522 lung": {"tested_on": "NCI-H522 lung"}, "OVCAR-3 ovarian": {"tested_on": "OVCAR-3 ovarian"}, "OVCAR-4 ovarian": {"tested_on": "OVCAR-4 ovarian"}, "OVCAR-5 ovarian": {"tested_on": "OVCAR-5 ovarian"}, "OVCAR-8 ovarian": {"tested_on": "OVCAR-8 ovarian"}, "RPMI-8226 leukemia": {"tested_on": "RPMI-8226 leukemia"}, "RXF 393 renal": {"tested_on": "RXF 393 renal"}, "RXF-631 renal": {"tested_on": "RXF-631 renal"}, "SF-268 CNS": {"tested_on": "SF-268 CNS"}, "SF-295 CNS": {"tested_on": "SF-295 CNS"}, "SF-539 CNS": {"tested_on": "SF-539 CNS"}, "SK-MEL-2 melanoma": {"tested_on": "SK-MEL-2 melanoma"}, "SK-MEL-28 melanoma": {"tested_on": "SK-MEL-28 melanoma"}, "SN12C renal": {"tested_on": "SN12C renal"}, "SNB-19 CNS": {"tested_on": "SNB-19 CNS"}, "SNB-75 CNS": {"tested_on": "SNB-75 CNS"}, "SNB-78 CNS": {"tested_on": "SNB-78 CNS"}, "SR leukemia": {"tested_on": "SR leukemia"}, "SW-620 colon": {"tested_on": "SW-620 colon"}, "TK-10 renal": {"tested_on": "TK-10 renal"}, "U251 CNS": {"tested_on": "U251 CNS"}, "UACC-257 melanoma": {"tested_on": "UACC-257 melanoma"}, "UACC-62 melanoma": {"tested_on": "UACC-62 melanoma"}, "UO-31 renal": {"tested_on": "UO-31 renal"}}, "note": "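Interpolation was linear, between the two tested concentrations surrounding the appropriate level; five concentrations were tested over 48 hours in 96-well plates. TGI is the concentration that stops growth completely.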", "data": [{"smiles": "COc1ccc2c3c([nH]c2c1[N+](=O)[O-])C(C)=NCC3", "values": [{"measurement": "TGI", "setting": "786-0 renal", "value": "> 100", "unit": "µM"}, {"measurement": "TGI", "setting": "A498 renal", "value": "> 100", "unit": "µM"}, {"measurement": "TGI", "setting": "A549 NSCLC", "value": "> 100", "unit": "µM"}, {"measurement": "TGI", "setting": "ACHN renal", "value": "> 100", "unit": "µM"}, {"measurement": "TGI", "setting": "CAKI-1 renal", "value": "> 100", "unit": "µM"}, {"measurement": "TGI", "setting": "CCRF-CEM leukemia", "value": "> 100", "unit": "µM"}, {"measurement": "TGI", "setting": "COLO 205 colon", "value": "> 100", "unit": "µM"}, {"measurement": "TGI", "setting": "DLD-1 colon", "value": "> 100", "unit": "µM"}, {"measurement": "TGI", "setting": "DMS 114 small cell lung", "value": "> 100", "unit": "µM"}, {"measurement": "TGI", "setting": "DMS 273 small cell lung", "value": "> 100", "unit": "µM"}, {"measurement": "TGI", "setting": "EKVX NSCLC", "value": "> 100", "unit": "µM"}, {"measurement": "TGI", "setting": "HCC-2998 colon", "value": "> 100", "unit": "µM"}, {"measurement": "TGI", "setting": "HCT-116 colon", "value": "> 100", "unit": "µM"}, {"measurement": "TGI", "setting": "HCT-15 colon", "value": "> 100", "unit": "µM"}, {"measurement": "TGI", "setting": "HL-60(TB) leukemia", "value": "> 100", "unit": "µM"}, {"measurement": "TGI", "setting": "HOP-62 NSCLC", "value": "> 100", "unit": "µM"}, {"measurement": "TGI", "setting": "HT29 colon", "value": "> 100", "unit": "µM"}, {"measurement": "TGI", "setting": "IGROV1 ovarian", "value": 77.2, "unit": "µM"}, {"measurement": "TGI", "setting": "K-562 leukemia", "value": "> 100", "unit": "µM"}, {"measurement": "TGI", "setting": "KM12 colon", "value": "> 100", "unit": "µM"}, {"measurement": "TGI", "setting": "KM20L2 colon", "value": "> 100", "unit": "µM"}, {"measurement": "TGI", "setting": "LOX IMVI melanoma", "value": "> 100", "unit": "µM"}, {"measurement": "TGI", "setting": "LXFL 529 NSCLC", "value": "> 100", "unit": "µM"}, {"measurement": "TGI", "setting": "M14 melanoma", "value": "> 100", "unit": "µM"}, {"measurement": "TGI", "setting": "MOLT-4 leukemia", "value": "> 100", "unit": "µM"}, {"measurement": "TGI", "setting": "NCI-H226 lung", "value": "> 100", "unit": "µM"}, {"measurement": "TGI", "setting": "NCI-H460 lung", "value": "> 100", "unit": "µM"}, {"measurement": "TGI", "setting": "NCI-H522 lung", "value": "> 100", "unit": "µM"}, {"measurement": "TGI", "setting": "OVCAR-3 ovarian", "value": "> 100", "unit": "µM"}, {"measurement": "TGI", "setting": "OVCAR-4 ovarian", "value": "> 100", "unit": "µM"}, {"measurement": "TGI", "setting": "OVCAR-5 ovarian", "value": "> 100", "unit": "µM"}, {"measurement": "TGI", "setting": "OVCAR-8 ovarian", "value": "> 100", "unit": "µM"}, {"measurement": "TGI", "setting": "RPMI-8226 leukemia", "value": "> 100", "unit": "µM"}, {"measurement": "TGI", "setting": "RXF 393 renal", "value": "> 100", "unit": "µM"}, {"measurement": "TGI", "setting": "RXF-631 renal", "value": "> 100", "unit": "µM"}, {"measurement": "TGI", "setting": "SF-268 CNS", "value": 64.7, "unit": "µM"}, {"measurement": "TGI", "setting": "SF-295 CNS", "value": "> 100", "unit": "µM"}, {"measurement": "TGI", "setting": "SF-539 CNS", "value": "> 100", "unit": "µM"}, {"measurement": "TGI", "setting": "SK-MEL-2 melanoma", "value": "> 100", "unit": "µM"}, {"measurement": "TGI", "setting": "SK-MEL-28 melanoma", "value": "> 100", "unit": "µM"}, {"measurement": "TGI", "setting": "SN12C renal", "value": "> 100", "unit": "µM"}, {"measurement": "TGI", "setting": "SNB-19 CNS", "value": "> 100", "unit": "µM"}, {"measurement": "TGI", "setting": "SNB-75 CNS", "value": "> 100", "unit": "µM"}, {"measurement": "TGI", "setting": "SNB-78 CNS", "value": "> 100", "unit": "µM"}, {"measurement": "TGI", "setting": "SR leukemia", "value": "> 100", "unit": "µM"}, {"measurement": "TGI", "setting": "SW-620 colon", "value": "> 100", "unit": "µM"}, {"measurement": "TGI", "setting": "TK-10 renal", "value": "> 100", "unit": "µM"}, {"measurement": "TGI", "setting": "U251 CNS", "value": "> 100", "unit": "µM"}, {"measurement": "TGI", "setting": "UACC-257 melanoma", "value": "> 100", "unit": "µM"}, {"measurement": "TGI", "setting": "UACC-62 melanoma", "value": 62.3, "unit": "µM"}, {"measurement": "TGI", "setting": "UO-31 renal", "value": "> 100", "unit": "µM"}]}]}
